Data: patent EP2487157A1, “Enantioselective synthesis method of 4-aminoalcoholquinoline derivatives and the use” (Université de Picardie Jules Verne, priority 2011, dated 2012)
pIC50: −log10 of the molar value. Converted amounts (≈) assume the structure as drawn. Like-named read-outs stand apart in the source and are kept apart here.

How the values were obtained:
[1] = tested on: Sierra Leone and Indochina P. falciparum strains; settings: ratio of IC50 values against Sierra Leone and Indochina P. falciparum strains; cited from earlier work
[2] = tested on: CNS adenosine receptors; settings: result in words, from literature; cited from earlier work
[3] = tested on: Plasmodium falciparum chloroquine resistant (W2); assay: Antimalarial test, tritiated hypoxanthine incorporation, chloroquine resistant clone W2; format: cell-based; settings: read-out: 50% inhibitory concentration followed by uncertainty about the value expressed in percentage
Protocol: (§1) Screenings of the compound according to the present invention (1f, 1h, 1i) and their isomers (1a, 1c, 1d)on strains of Plasmodium falciparum sensitive (3D7) and chloroquine resistant (W2) were realized.
(§2) The Clones of W2 and 3D7 were grown. […] Melfloquine (MQ) at the same concentrations and chloroquine (CQ) at the concentrations adapted to each clone were used as the Controls. 8 negative controls were distributed on each plate.
(§3) Then, the molecules to be tested were diluted extemporaneously in the above preparation of the plates. The growth medium was deposited after drying plates. The study was initiated when the growth medium was at the ring stage and then stopped after 1 parasitic cycle (45h).
(§4) The activity was calculated by using the Pk-Fit software on all the experimental points obtained for each molecule (except the highest concentration). The results shown in table 5 are expressed in nM and correspond to calculate a 50% inhibitory concentration followed by un certainty about the value expressed in percentage. Table 5. The biological effect of the compounds on Plasmodium falciparum

[4] = tested on: Plasmodium falciparum sensitive (3D7); assay: Antimalarial test, tritiated hypoxanthine incorporation, sensitive clone 3D7; format: cell-based; settings: read-out: 50% inhibitory concentration followed by uncertainty about the value expressed in percentage
Protocol: as §1, §2, §3, §4

[5] = tested on: E. coli DSM 1103; assay: Antibacterial test, MIC by CLSI broth dilution; format: cell-based; settings: 18 to 24 h at 37°C, Mueller-Hinton
Protocol: (§5) The minimum inhibitory concentrations (MICs) were determined according to the recommendations of the Clinical and Laboratory Standards Institute (CLSI)^[27]. […] After incubation for 18 to 24 h (48 h for Enterococcus faecalis) at 37°C, the MIC was determined as the product concentration of the first well with no visual signs of bacterial growth (no disorder in the well). […] Table6. The antibacterial effects of the compounds

[6] = tested on: P. aeruginosa DSM 1117; assay: Antibacterial test, MIC by CLSI broth dilution; format: cell-based; settings: 18 to 24 h at 37°C, Mueller-Hinton
Protocol: as §5

[7] = tested on: S. aureus CIP 103429; assay: Antibacterial test, MIC by CLSI broth dilution; format: cell-based; settings: 18 to 24 h at 37°C, Mueller-Hinton
Protocol: as §5

[8] = tested on: E. faecalis CIP 103214; assay: Antibacterial test, MIC by CLSI broth dilution; format: cell-based, Enterococcus faecalis; settings: 48 h at 37°C, Mueller-Hinton
Protocol: as §5

[9] = tested on: SAAM 12; assay: Antibacterial test, MIC by CLSI broth dilution; format: cell-based, Staphylococcus aureus; settings: SAAM 12, clinical strain resistant to methicillin; 18 to 24 h at 37°C
Protocol: as §5

[10] = tested on: SAAM 27; assay: Antibacterial test, MIC by CLSI broth dilution; format: cell-based, Staphylococcus aureus; settings: SAAM 27, clinical strain resistant to methicillin; 18 to 24 h at 37°C
Protocol: as §5

[11] = tested on: SAAM 51; assay: Antibacterial test, MIC by CLSI broth dilution; format: cell-based, Staphylococcus aureus; settings: SAAM 51, clinical strain resistant to methicillin; 18 to 24 h at 37°C
Protocol: as §5

[12] = tested on: SAAM 64; assay: Antibacterial test, MIC by CLSI broth dilution; format: cell-based, Staphylococcus aureus; settings: SAAM 64, clinical strain resistant to methicillin; 18 to 24 h at 37°C
Protocol: as §5

[13] = tested on: SAAM 69; assay: Antibacterial test, MIC by CLSI broth dilution; format: cell-based, Staphylococcus aureus; settings: SAAM 69, clinical strain resistant to methicillin; 18 to 24 h at 37°C
Protocol: as §5

[14] = tested on: SAAM 86; assay: Antibacterial test, MIC by CLSI broth dilution; format: cell-based, Staphylococcus aureus; settings: SAAM 86, clinical strain resistant to methicillin; 18 to 24 h at 37°C
Protocol: as §5

[15] = tested on: SAAM 95; assay: Antibacterial test, MIC by CLSI broth dilution; format: cell-based, Staphylococcus aureus; settings: SAAM 95, clinical strain resistant to methicillin; 18 to 24 h at 37°C
Protocol: as §5

[16] = tested on: SAAM 98; assay: Antibacterial test, MIC by CLSI broth dilution; format: cell-based, Staphylococcus aureus; settings: SAAM 98, clinical strain resistant to methicillin; 18 to 24 h at 37°C
Protocol: as §5

[17] = W2 clone, chloroquine resistant, 1 parasitic cycle (45h), bracket = uncertainty in %
[18] = 3D7 clone, sensitive, 1 parasitic cycle (45h), bracket = uncertainty in %

pIC50 [3, 17] | pIC50 [4, 18] | minimum inhibitory concentrations (MICs) [5] [µg/mL] | minimum inhibitory concentrations (MICs) [6] [µg/mL] | minimum inhibitory concentrations (MICs) [7] [µg/mL] | minimum inhibitory concentrations (MICs) [8] [µg/mL] | minimum inhibitory concentrations (MICs) [9] [µg/mL] | minimum inhibitory concentrations (MICs) [10] [µg/mL] | minimum inhibitory concentrations (MICs) [11] [µg/mL] | minimum inhibitory concentrations (MICs) [12] [µg/mL] | minimum inhibitory concentrations (MICs) [13] [µg/mL] | minimum inhibitory concentrations (MICs) [14] [µg/mL] | minimum inhibitory concentrations (MICs) [15] [µg/mL] | minimum inhibitory concentrations (MICs) [16] [µg/mL] | Compound | more potent than the (-)-enantiomer by a factor [1] | binding to CNS adenosine receptors [2] | pIC50 ([3]; W2, 45 h) | pIC50 ([4]; 3D7, 45 h)
8.16 | 8.08 | 16 (≈ 40.6 µM) | >128 | 16 to 32 | 16 to 32 | 8 (≈ 20.3 µM) | 8 (≈ 20.3 µM) | 8 (≈ 20.3 µM) | 16 (≈ 40.6 µM) | 8 (≈ 20.3 µM) | 16 (≈ 40.6 µM) | 8 (≈ 20.3 µM) | 16 (≈ 40.6 µM) | CCCCCNC[C@@H](O)c1cc(C(F)(F)F)nc2c(C(F)(F)F)cccc12 [Compound 1h, (S)-1-(2,8-bis(trifluoromethyl)quinolin-4-yl)-2-(pentylamino)ethanol] | – | – | – | –
7.72 | 7.45 | >128 | >128 | 4 to 8 | 8 (≈ 19.3 µM) | 4 (≈ 9.65 µM) | 4 (≈ 9.65 µM) | 4 (≈ 9.65 µM) | >128 | 8 (≈ 19.3 µM) | 8 (≈ 19.3 µM) | 4 (≈ 9.65 µM) | 8 (≈ 19.3 µM) | O[C@H](CNCc1ccccc1)c1cc(C(F)(F)F)nc2c(C(F)(F)F)cccc12 [Compound 1f, (S)-2-(benzylamino)-1-(2,8-bis(trifluoromethyl)quinolin-4-yl)ethanol] | – | – | – | –
7.58 | 7.28 | 64 (≈ 169 µM) | >128 | 16 to 32 | 16 to 32 | 16 (≈ 42.3 µM) | 16 (≈ 42.3 µM) | 16 (≈ 42.3 µM) | 32 (≈ 84.6 µM) | 16 (≈ 42.3 µM) | 16 (≈ 42.3 µM) | 16 (≈ 42.3 µM) | 32 (≈ 84.6 µM) | O[C@H](c1cc(C(F)(F)F)nc2c(C(F)(F)F)cccc12)[C@@H]1CCCCN1 (relative stereo) [MQ, (±)-(R*,S*)-α-2-piperidinyl-2,8-bis(trifluoromethyl)-4-quinolinemethanol, reference compound] | – | – | – | –
6.85 | 6.69 | 16 (≈ 39.2 µM) | >128 | 4 to 8 | 4 to 8 | 4 (≈ 9.79 µM) | 4 (≈ 9.79 µM) | 4 (≈ 9.79 µM) | 4 (≈ 9.79 µM) | 4 (≈ 9.79 µM) | 4 (≈ 9.79 µM) | 4 (≈ 9.79 µM) | 4 (≈ 9.79 µM) | CCCCCCNC[C@H](O)c1cc(C(F)(F)F)nc2c(C(F)(F)F)cccc12 [Compound 1d, (R)-1-(2,8-bis(trifluoromethyl)quinolin-4-yl)-2-(hexylamino)ethanol] | – | – | – | –
7.39 | 6.98 | >128 | >128 | >128 | >128 | 4 (≈ 9.65 µM) | 4 (≈ 9.65 µM) | 4 (≈ 9.65 µM) | >128 | 8 (≈ 19.3 µM) | 8 (≈ 19.3 µM) | 4 (≈ 9.65 µM) | >128 | O[C@@H](CNCc1ccccc1)c1cc(C(F)(F)F)nc2c(C(F)(F)F)cccc12 [Compound 1a, (R)-2-(benzylamino)-1-(2,8-bis(trifluoromethyl)quinolin-4-yl)ethanol] | – | – | – | –

More lines, now with the values behind:

Compound | pIC50 [3, 17] | pIC50 [4, 18] | minimum inhibitory concentrations (MICs) [5] [µg/mL] | minimum inhibitory concentrations (MICs) [6] [µg/mL] | minimum inhibitory concentrations (MICs) [7] [µg/mL] | minimum inhibitory concentrations (MICs) [8] [µg/mL] | minimum inhibitory concentrations (MICs) [9] [µg/mL] | minimum inhibitory concentrations (MICs) [10] [µg/mL] | minimum inhibitory concentrations (MICs) [11] [µg/mL] | minimum inhibitory concentrations (MICs) [12] [µg/mL] | minimum inhibitory concentrations (MICs) [13] [µg/mL] | minimum inhibitory concentrations (MICs) [14] [µg/mL] | minimum inhibitory concentrations (MICs) [15] [µg/mL] | minimum inhibitory concentrations (MICs) [16] [µg/mL] | more potent than the (-)-enantiomer by a factor [1] | binding to CNS adenosine receptors [2] | pIC50 ([3]; W2, 45 h) | pIC50 ([4]; 3D7, 45 h)
O[C@H](c1cc(C(F)(F)F)nc2c(C(F)(F)F)cccc12)[C@@H]1CCCCN1 (single isomer, unassigned) [(+)-enantiomer of the mefloquine] | – | – | – | – | – | – | – | – | – | – | – | – | – | – | 1.69 | without significant activity | – | –
CCCCCCNC[C@@H](O)c1cc(C(F)(F)F)nc2c(C(F)(F)F)cccc12 [Compound 1i, (S)-1-(2,8-bis(trifluoromethyl)quinolin-4-yl)-2-(hexylamino)ethanol] | 8.03 | 7.84 | >128 | >128 | 4 to 8 | 4 to 8 | 2 (≈ 4.9 µM) | 2 (≈ 4.9 µM) | 2 (≈ 4.9 µM) | 4 (≈ 9.79 µM) | 4 (≈ 9.79 µM) | 8 (≈ 19.6 µM) | 2 (≈ 4.9 µM) | 8 (≈ 19.6 µM) | – | – | – | –
CCCCCNC[C@H](O)c1cc(C(F)(F)F)nc2c(C(F)(F)F)cccc12 [Compound 1c, (R)-1-(2,8-bis(trifluoromethyl)quinolin-4-yl)-2-(pentylamino)ethanol] | 7.42 | 7.13 | 32 (≈ 81.1 µM) | >128 | 16 to 32 | 16 to 32 | 8 (≈ 20.3 µM) | 8 (≈ 20.3 µM) | 8 (≈ 20.3 µM) | 16 (≈ 40.6 µM) | 8 (≈ 20.3 µM) | 16 (≈ 40.6 µM) | 8 (≈ 20.3 µM) | 16 (≈ 40.6 µM) | – | – | – | –
O[C@@H](c1cc(C(F)(F)F)nc2c(C(F)(F)F)cccc12)[C@H]1CCCCN1 (single isomer, unassigned) [(-)-enantiomer of mefloquine] | – | – | – | – | – | – | – | – | – | – | – | – | – | – | – | binds to CNS adenosine receptors | – | –
CCN(CC)CCCC(C)Nc1ccnc2cc(Cl)ccc12 (stereo not shown) [CQ, chloroquine, reference compound] | – | – | – | – | – | – | – | – | – | – | – | – | – | – | – | – | 6.24 | 7.49
